Test results from patent publication US9480418B2, “Systems and methods for the screening and monitoring of inner ear function” (The United States Government as represented by the …, priority 2012, dated 2016).

System: hearing in the SRO frequencies
Experiment: Validation study: SRO hearing monitoring with OtoID in subjects receiving cisplatin
Assay type: in vivo, human
Conditions: 9 ears of 24 monitored; Validation sample
Source text: Validation Study, Sample Subjects. […] Subjects were prescreened using the electronic medical records for exclusionary criteria and to obtain treatment information. The subjects enrolled in the Validation study were part of a larger project to develop and evaluate a portable hearing testing device capable of measuring extended high frequency hearing. Except for the following two study-related differences, the same exclusionary criteria were used to recruit both groups of subjects (those participating in the Developmental or Validation studies). First, there was no exclusion for extent of hearing threshold loss in the Validation study sample. Second, subjects from the Validation study were tested on the chemotherapy unit or at bedside in the case of inpatients. There was no overlap of subjects in these two samples.
Validation Study; Equipment and Measurements. […] This device, the OtoID, was evaluated in an independent study for its ability to optimize the sensitivity, efficiency, and cost-effectiveness of ototoxicity early identification practices. […]
Sennheiser HDA 200 earphones were used with the OtoID to reduce the detrimental effects of environmental noise. […] The seven frequencies constituting each subject's individualized behavioral SRO were evaluated at each treatment interval. […] Subjects were also evaluated immediately following cessation of treatment and at 1 mo post-cessation of treatment. […]

SMILES: N.N.[Cl][Pt][Cl] [cisplatin]
- ears in which hearing loss occurred: 38%
